Reference: ChEMBL document CHEMBL4007500, “Cyclic mu-opioid receptor ligands containing multiple N-methylated amino acid residues” (Bioorg Med Chem Lett, 2017)
The source made the active and inactive calls. The calls are words filed in the database; no cut-off is given here.

Assays:
[1] = target: Kappa-type opioid receptor (Homo sapiens) (UniProt P41145); experiment: Agonist activity at human recombinant KOR expressed in CHO cells assessed as calcium mobilization up to 1 uM by Fluo-4 AM based fluorescence analysis; type: functional, cell-based
Sequence of Kappa-type opioid receptor (Homo sapiens) (P41145 whole entry): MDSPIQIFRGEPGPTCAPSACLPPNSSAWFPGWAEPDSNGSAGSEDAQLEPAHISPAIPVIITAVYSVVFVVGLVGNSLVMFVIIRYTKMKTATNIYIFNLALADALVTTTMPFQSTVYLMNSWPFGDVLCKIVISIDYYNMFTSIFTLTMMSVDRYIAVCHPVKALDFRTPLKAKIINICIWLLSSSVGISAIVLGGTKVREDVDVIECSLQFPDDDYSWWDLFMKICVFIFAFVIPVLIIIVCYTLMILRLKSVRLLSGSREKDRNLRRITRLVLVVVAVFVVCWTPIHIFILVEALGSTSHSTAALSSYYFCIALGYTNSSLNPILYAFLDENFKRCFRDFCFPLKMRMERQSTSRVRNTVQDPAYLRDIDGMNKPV

[2] = Stability of compound in Wistar rat brain homogenate assessed as compound remaining at 0.5 mM after 90 mins by RP-HPLC analysis; type: ADME, tissue-based; conditions: read-out: Stability
Mu-type opioid receptor [3] = target: Mu-type opioid receptor (Rattus norvegicus, UniProt P33535); experiment: Displacement of [3H]DAMGO from MOR in Wistar rat brain homogenates after 180 mins by liquid scintillation counting analysis
Sequence of Mu-type opioid receptor (Rattus norvegicus, UniProt P33535) (P33535 whole entry): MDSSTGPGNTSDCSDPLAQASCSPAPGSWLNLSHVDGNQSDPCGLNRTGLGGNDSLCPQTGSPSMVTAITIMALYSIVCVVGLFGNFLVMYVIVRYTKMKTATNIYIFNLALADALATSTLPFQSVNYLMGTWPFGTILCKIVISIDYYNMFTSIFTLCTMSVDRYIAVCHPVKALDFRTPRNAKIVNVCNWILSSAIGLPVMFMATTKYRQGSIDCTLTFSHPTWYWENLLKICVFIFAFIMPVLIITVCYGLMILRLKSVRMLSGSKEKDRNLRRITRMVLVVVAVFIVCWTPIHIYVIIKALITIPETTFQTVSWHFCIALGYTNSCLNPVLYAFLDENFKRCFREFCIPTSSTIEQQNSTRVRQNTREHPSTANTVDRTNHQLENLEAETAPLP

[4] = target: Delta-type opioid receptor (Rattus norvegicus, UniProt P33533); experiment: Displacement of [3H][Ile5,6]deltorphin-2 from DOR in Wistar rat brain homogenates after 180 mins by liquid scintillation counting analysis
Sequence of Delta-type opioid receptor (P33533 whole entry): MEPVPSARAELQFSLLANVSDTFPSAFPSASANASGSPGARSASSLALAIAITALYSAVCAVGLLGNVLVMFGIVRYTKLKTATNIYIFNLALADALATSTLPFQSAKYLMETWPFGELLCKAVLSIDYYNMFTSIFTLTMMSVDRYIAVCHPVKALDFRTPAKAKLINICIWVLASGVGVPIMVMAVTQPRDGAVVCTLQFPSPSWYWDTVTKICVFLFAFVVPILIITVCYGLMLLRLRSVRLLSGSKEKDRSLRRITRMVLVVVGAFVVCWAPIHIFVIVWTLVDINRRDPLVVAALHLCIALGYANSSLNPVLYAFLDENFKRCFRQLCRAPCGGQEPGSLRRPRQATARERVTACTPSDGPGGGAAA

[5] = target: Delta-type opioid receptor (Homo sapiens) (UniProt P41143); experiment: Agonist activity at human recombinant DOR expressed in CHO cells assessed as calcium mobilization up to 1 uM by Fluo-4 AM based fluorescence analysis; type: functional, cell-based
Sequence of Delta-type opioid receptor (Homo sapiens) (P41143 whole entry): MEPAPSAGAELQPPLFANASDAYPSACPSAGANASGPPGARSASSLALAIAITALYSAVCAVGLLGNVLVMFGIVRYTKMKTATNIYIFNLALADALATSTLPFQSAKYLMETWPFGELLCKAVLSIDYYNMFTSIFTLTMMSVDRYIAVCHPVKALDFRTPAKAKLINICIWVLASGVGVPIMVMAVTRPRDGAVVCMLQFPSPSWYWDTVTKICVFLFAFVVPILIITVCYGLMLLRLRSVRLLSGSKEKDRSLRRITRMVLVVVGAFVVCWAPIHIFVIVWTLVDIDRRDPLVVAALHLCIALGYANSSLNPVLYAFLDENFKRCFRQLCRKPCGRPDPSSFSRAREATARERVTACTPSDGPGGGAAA

[6] = target: Kappa-type opioid receptor (Cavia porcellus, UniProt P41144); experiment: Displacement of [3H]nor-BNI from KOR in Dunkin Hartley guinea pig brain homogenates after 180 mins by liquid scintillation counting analysis
Sequence of Kappa-type opioid receptor (P41144 whole entry): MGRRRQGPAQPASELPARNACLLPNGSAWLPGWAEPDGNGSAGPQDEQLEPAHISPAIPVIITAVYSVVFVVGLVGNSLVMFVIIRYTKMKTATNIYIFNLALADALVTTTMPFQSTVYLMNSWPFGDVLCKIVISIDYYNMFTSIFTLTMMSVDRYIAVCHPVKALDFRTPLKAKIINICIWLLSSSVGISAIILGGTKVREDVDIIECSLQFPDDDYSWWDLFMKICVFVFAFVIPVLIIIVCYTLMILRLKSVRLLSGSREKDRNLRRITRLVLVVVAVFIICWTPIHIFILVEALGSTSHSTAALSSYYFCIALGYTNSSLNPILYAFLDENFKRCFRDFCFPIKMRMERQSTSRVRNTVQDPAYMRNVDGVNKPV

Mu-type opioid receptor [7] = target: T1, Mu-type opioid receptor (Homo sapiens, UniProt P35372); experiment: Agonist activity at human recombinant MOR expressed in CHO cells assessed as calcium mobilization by Fluo-4 AM based fluorescence analysis; type: functional, cell-based
T1 sequence (P35372 whole entry): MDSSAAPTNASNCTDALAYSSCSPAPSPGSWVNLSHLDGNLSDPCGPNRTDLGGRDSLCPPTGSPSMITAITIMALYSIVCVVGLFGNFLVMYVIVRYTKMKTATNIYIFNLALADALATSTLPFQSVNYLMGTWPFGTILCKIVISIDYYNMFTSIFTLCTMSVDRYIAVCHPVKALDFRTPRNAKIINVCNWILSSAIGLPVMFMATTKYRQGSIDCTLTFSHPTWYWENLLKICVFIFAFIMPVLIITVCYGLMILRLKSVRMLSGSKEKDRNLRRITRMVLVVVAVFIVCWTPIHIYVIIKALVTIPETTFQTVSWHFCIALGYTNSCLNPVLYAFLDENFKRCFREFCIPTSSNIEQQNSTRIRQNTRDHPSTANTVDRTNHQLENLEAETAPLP

Mu-type opioid receptor [8] = target: T1, Mu-type opioid receptor; experiment: Agonist activity at human recombinant MOR expressed in CHO cells assessed as calcium mobilization by Fluo-4 AM based fluorescence analysis relative to EM2; type: functional, cell-based

With `CN[C@@H](Cc1ccc(O)cc1)C(=O)N[C@@H]1CCCCNC(=O)C[C@@H](C(N)=O)NC(=O)CNC(=O)[C@H](Cc2ccccc2)N(C)C(=O)[C@H](Cc2ccccc2)N(C)C(=O)CNC1=O` the Activity [1] was “inactive”, the remaining at 1.5 h, 500 µM [2] was 97.4% and the Ki (Mu-type opioid receptor [3]; read-out: Ki) was 0.106 µM. The Ki ([4]; read-out: Ki) was greater than 1 µM, the Activity [5] was “inactive” and the Ki ([6]; read-out: Ki) was greater than 1 µM. The pEC50 (Mu-type opioid receptor [7]) was “inactive”.
With `CN[C@H](Cc1ccc(O)cc1)C(=O)N[C@H]1CCCCNC(=O)C[C@@H](C(N)=O)NC(=O)[C@H](Cc2ccccc2)N(C)C(=O)CNC(=O)[C@H](Cc2ccccc2)N(C)C1=O` the Activity [1] was “inactive”, the Activity [5] was “inactive” and the pEC50 (Mu-type opioid receptor [7]) was “inactive”.
With `CN[C@@H](Cc1ccc(O)cc1)C(=O)N[C@@H]1CCCCNC(=O)C[C@@H](C(N)=O)NC(=O)[C@H](Cc2ccccc2)N(C)C(=O)CNC(=O)[C@H](Cc2ccccc2)N(C)C1=O` the remaining at 1.5 h, 500 µM [2] was 97%, the Ki (Mu-type opioid receptor [3]; read-out: Ki) was 0.0765 µM and the Ki ([4]; read-out: Ki) was greater than 1 µM. The Ki ([6]; read-out: Ki) was 0.519 µM.
For `CN[C@@H](Cc1ccc(O)cc1)C(=O)N[C@@H]1CCCCNC(=O)C[C@@H](C(N)=O)NC(=O)[C@H](Cc2ccccc2)N(C)C(=O)[C@H](Cc2ccccc2)N(C)C1=O`, the remaining at 1.5 h, 500 µM [2] was 96.9%, the Ki (Mu-type opioid receptor [3]) was “Nd(Insoluble)” and the Ki [4] was “Nd(Insoluble)”. For the same compound, the Ki [6] was “Nd(Insoluble)”.
With `CN[C@@H](Cc1ccc(O)cc1)C(=O)N[C@@H]1CCCCNC(=O)C[C@@H](C(N)=O)NC(=O)[C@H](Cc2ccccc2)N(C)C(=O)[C@H](Cc2ccccc2)NC1=O` the Activity [1] was “inactive”, the remaining at 1.5 h, 500 µM [2] was 97.2% and the Ki (Mu-type opioid receptor [3]; read-out: Ki) was 0.00073 µM. The Ki ([4]; read-out: Ki) was greater than 1 µM, the Activity [5] was “inactive” and the Intrinsic activity (Mu-type opioid receptor [8]) was 0.93. For the same compound, the Ki ([6]; read-out: Ki) was greater than 1 µM and the EC50 (Mu-type opioid receptor [7]) was 0.0102 µM.
